In ChEMBL document CHEMBL4177564, “Pyrrolo[2,1-f][1,2,4]triazines: From C-nucleosides to kinases and back again, the remarkable journey of a versatile nitrogen heterocycle” (Bioorg Med Chem Lett, 2017):
pIC50: −log10 of the molar value.

Experiments:
[1] = target: Ubiquitin carboxyl-terminal hydrolase 7 (Homo sapiens, UniProt Q93009); assay: Inhibition of His6-tagged USP7 (208 to 1102 residues) (unknown origin) using ubiquitin-rhodamine110 as substrate preincubated for 30 mins followed by substrate addition measured after 20 mins by fluorescence assay
[2] = target: Potassium voltage-gated channel subfamily A member 5 (Homo sapiens) (UniProt P22460); assay: Inhibition of human Kv1.5 expressed in mouse L929 cells assessed as reduction in channel current at 0.3 uM by patch clamp method relative to control; assay type: cell-based
Chain of Potassium voltage-gated channel subfamily A member 5 (Homo sapiens) (P22460 whole entry): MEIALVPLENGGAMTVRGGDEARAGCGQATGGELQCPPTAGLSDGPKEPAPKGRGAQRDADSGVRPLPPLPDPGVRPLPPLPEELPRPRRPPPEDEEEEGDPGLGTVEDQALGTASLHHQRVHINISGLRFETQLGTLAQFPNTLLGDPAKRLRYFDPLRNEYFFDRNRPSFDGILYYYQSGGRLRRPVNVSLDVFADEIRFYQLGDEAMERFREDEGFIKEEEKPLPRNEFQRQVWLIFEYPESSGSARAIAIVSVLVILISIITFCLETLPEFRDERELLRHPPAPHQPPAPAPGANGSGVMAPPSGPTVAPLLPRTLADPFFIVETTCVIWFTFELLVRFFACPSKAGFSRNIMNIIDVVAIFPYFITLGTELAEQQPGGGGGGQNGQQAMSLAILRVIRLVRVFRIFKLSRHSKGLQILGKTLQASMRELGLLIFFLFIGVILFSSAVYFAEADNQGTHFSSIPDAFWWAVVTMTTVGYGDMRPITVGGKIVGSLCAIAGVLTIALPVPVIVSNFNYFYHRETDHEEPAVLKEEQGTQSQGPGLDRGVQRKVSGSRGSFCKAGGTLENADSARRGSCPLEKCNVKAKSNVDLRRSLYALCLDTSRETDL

Chain of Ubiquitin carboxyl-terminal hydrolase 7 (Q93009 whole entry, the tested form may be a part): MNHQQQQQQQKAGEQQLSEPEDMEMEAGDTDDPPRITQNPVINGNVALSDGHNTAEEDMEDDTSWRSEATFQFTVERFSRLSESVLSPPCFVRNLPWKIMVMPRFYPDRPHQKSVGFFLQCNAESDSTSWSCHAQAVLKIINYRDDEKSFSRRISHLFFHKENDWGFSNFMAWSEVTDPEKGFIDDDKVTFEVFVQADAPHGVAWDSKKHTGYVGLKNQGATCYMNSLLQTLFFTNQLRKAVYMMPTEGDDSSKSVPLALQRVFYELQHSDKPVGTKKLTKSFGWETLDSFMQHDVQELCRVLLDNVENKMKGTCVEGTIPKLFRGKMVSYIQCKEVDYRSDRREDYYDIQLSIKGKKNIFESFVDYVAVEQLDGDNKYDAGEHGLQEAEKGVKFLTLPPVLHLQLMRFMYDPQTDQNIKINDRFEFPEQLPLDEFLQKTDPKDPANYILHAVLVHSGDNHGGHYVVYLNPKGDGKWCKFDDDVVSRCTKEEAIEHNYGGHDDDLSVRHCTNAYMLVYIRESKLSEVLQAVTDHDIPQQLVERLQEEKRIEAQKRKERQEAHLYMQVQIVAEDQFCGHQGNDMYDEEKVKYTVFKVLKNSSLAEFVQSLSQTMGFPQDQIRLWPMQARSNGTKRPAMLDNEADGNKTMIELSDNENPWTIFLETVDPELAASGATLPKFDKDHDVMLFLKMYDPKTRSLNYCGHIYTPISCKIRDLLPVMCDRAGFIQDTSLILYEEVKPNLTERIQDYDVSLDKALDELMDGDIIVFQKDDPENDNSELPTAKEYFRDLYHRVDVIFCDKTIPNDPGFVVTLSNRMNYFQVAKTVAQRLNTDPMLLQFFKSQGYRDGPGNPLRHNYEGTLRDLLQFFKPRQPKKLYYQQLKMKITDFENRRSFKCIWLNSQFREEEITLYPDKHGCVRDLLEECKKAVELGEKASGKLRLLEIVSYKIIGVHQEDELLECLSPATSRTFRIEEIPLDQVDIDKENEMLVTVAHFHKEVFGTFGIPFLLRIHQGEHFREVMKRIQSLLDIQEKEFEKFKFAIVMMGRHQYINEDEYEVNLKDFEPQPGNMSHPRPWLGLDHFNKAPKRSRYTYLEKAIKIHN

pIC50 [1]	inhibition [2] [%]	SMILES
> 6.70	–	C[C@H](CC(=O)N1CCC(O)(Cn2cnn3cccc3c2=O)CC1)c1ccccc1
–	> 95	NS(=O)(=O)c1cncc(-c2nc(NCc3ccccc3)c3c(-c4ccccc4)ccn3n2)c1
